Source: the NIST ThermoML archive (doi:10.1016/j.jct.2012.08.026)
Numbers after ± are expanded uncertainties.

Conditions: 308.15 K, 101.33 kPa, Liquid; for viscosity: Capillary tube (Ostwald / Ubbelohde) method; for speed of sound: Pulse-echo method; for mass density: Vibrating tube method

| Compound | viscosity [mPa·s] | speed of sound [m/s] | mass density [kg/m3] |
| --- | --- | --- | --- |
| O=C1CCCN1 [2-pyrrolidinone] | 8.922 ± 0.095 | 1600 ± 3.3 | 1097.14 ± 0.85 |
| CC(O)C(C)O (stereo not given) [2,3-butanediol] | 51.38 ± 1.1 | 1456.6 ± 3.7 | 990.72 ± 1.1 |
| OCCCCO [1,4-butanediol] | 47.38 ± 0.94 | 1577.8 ± 3.2 | 1003.95 ± 0.76 |
| CC(O)CCO (stereo not given) [1,3-butanediol] | 54.24 ± 1.1 | 1496 ± 3.2 | 991.28 ± 0.75 |
| CCC(O)CO (stereo not given) [1,2-butanediol] | 30.29 ± 0.56 | 1422.6 ± 3.7 | 988.25 ± 1.1 |
